Test system: BMCs (Bone Marrow Cells) from growing female rats
Test: Ex-vivo bone marrow cultures from treated immature rats (ALP, mineralization)
Format: in vivo, Sprague Dawley rats
Settings: BMCs from growing rats treated with 5.0 mg/kg body weight for 30 days; vs controls
Source text: Right femur of control and C002 treated rats were collected aseptically in PBS during autopsy from the rats. Soft tissue was removed, and the ends of the femur was clipped off using sterile scissors, a hole was created in the knee joint end of each bone with a needle, and the marrow was flushed out from the shaft with control medium (CM) which consisted of α-MEM supplemented with 10% fetal calf serum, 100 U/ml penicillin, 100 U/ml streptomycin (Sigma, Chemical Co., St. Louis, Mo., USA). The cells were suspended in this medium, and the suspensions were spun down at 800 rpm for 5 min. Cells were resuspended in fresh CM and counted using a haemocytometer. […] ALP activity was determined as described by Akiyama et al. with modifications. Briefly, cells were washed once with PBS, then, ALP activity was measured by adding ALP buffer (1 M diethanolamine, 0.5 mM MgCl2, 1 mg/ml PNPP, pH 9.0), incubating in 37° C., and absorbance (405 nm) was read using a microplate spectrophotometer. Statistical significance was determined by paired two-tailed Student's t-tests. […]
Right femur of control and K058 treated rats were collected aseptically in PBS during autopsy from the rats. […] Cells were resuspended in fresh CM and counted using a haemocytometer. […] ALP activity was determined as described by Akiyama et al. with modifications. […] Statistical significance was determined by paired two-tailed Student's t-tests.

With `O=C1c2c(cc(O)c([C@@H]3OC(CO)[C@@H](O)[C@H](O)C3O)c2O)O[C@@H](c2ccc(O)c(O)c2)[C@@H]1O` (stereo partly drawn) [K058, (2S,3S)-(+)-3′,4′,5,7-tetrahydroxydihydroflavonol-6-C-β-D-glucopyranoside] the “ALP activity of BMCs (osteoblast differentiation)” value was “significantly more” and the “mineralization of BMCs (alizarin red-S)” value was “significantly more”.

Reference: patent US8669232B2, “Flavonol compounds, a bioactive extract/fraction from Ulmus wallichiana and its compounds for prevention for treatment of osteo-health related disorders” (Council of Scientific & Industrial Research, priority 2008, dated 2014)
